Values quoted from earlier work, collected in patent US10034966B2, “Coated vaso-occlusive device and methods for treatment of aneurysms” (Carnegie Mellon University, priority 2013, dated 2018).

Tested on: L929 fibroblasts

## COC(=O)C1=CO[C@@H](O)[C@@H]2C(CO)=CC[C@H]12 [genipin, methyl (1S,2R,6S)-2-hydroxy-9-(hydroxymethyl)-3-oxabicyclo[4.3.0]nona-4,8-diene-5-carboxylate]
Exposures of 5 mM and 10 mM
  cell death to L929 fibroblasts: can cause cell death
Incubated in 1 mM
  cytotoxicity, cell samples compared with controls: indistinguishable from controls
